{"source": "ChEMBL document CHEMBL4765403", "about": "“Augmentation of the antitumor effects of PARP inhibitors in triple-negative breast cancer via degradation by hydrophobic tagging modulation” (Eur J Med Chem, 2020)", "key": {"MDA-MB-231 [1]": {"test_system": "MDA-MB-231", "assay": "Induction of apoptosis in human MDA-MB-231 cells assessed as downregulation in survivin gene expression at 5 to 10 uM incubated for 24 to 48 hrs by RT-PCR analysis", "assay_type": "functional, cell-based", "details": "dose 5-10 µM, time 24-48 hrs"}, "MDA-MB-231 [2]": {"test_system": "MDA-MB-231", "assay": "Induction of apoptosis in human MDA-MB-231 cells assessed as decrease in Bcl2 protein expression at 5 uM incubated for 24 to 48 hrs by Western blot analysis", "assay_type": "functional, cell-based", "details": "time 24-48 hrs"}, "[3]": {"target": "Poly [ADP-ribose] polymerase 1 (Homo sapiens) (UniProt P09874)", "sequence (P09874 whole entry)": "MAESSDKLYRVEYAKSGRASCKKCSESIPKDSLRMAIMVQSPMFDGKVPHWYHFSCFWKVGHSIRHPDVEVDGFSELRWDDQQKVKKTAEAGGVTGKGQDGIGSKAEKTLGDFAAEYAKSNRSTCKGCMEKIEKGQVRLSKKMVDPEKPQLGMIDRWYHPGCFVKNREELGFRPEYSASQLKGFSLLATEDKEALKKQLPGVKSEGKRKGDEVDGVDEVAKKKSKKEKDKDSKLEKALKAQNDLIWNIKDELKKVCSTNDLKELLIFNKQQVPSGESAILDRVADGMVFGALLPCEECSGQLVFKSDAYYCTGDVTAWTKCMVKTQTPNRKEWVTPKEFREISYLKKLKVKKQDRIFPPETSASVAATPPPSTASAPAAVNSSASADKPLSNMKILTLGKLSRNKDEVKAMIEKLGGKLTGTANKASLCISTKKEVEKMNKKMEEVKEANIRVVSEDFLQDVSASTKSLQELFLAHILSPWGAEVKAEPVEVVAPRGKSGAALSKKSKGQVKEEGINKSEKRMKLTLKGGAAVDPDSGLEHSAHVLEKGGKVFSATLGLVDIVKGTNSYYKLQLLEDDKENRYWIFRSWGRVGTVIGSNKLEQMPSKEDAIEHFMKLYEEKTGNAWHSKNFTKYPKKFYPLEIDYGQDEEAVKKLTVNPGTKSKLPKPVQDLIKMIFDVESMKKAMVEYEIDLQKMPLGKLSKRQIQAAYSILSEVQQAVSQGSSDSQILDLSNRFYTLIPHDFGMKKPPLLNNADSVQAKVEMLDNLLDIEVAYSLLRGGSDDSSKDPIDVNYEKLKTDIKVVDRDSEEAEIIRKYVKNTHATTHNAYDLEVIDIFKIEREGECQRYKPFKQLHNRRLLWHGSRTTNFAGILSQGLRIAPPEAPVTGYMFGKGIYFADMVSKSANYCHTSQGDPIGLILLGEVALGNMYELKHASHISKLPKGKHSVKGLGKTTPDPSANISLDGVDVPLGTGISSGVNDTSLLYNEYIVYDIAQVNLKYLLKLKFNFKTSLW", "assay": "Induction of PARP1 degradation in triple-negative human MDA-MB-231 cells assessed as fold change in PARP1 protein expression at 10 uM incubated for 48 hrs by Western blot analysis relative to control", "assay_type": "cell-based"}, "[4]": {"target": "Poly [ADP-ribose] polymerase 1 (Homo sapiens) (UniProt P09874)", "assay": "Induction of PARP1 degradation in triple-negative human MDA-MB-231 cells assessed as fold change in PARP1 protein expression at 1 uM incubated for 48 hrs by Western blot analysis relative to control", "assay_type": "cell-based"}, "MDA-MB-231 [5]": {"test_system": "MDA-MB-231", "assay": "Induction of endoplasmic reticulum stress in human MDA-MB-231 cells assessed as upregulation in XBP-1s gene expression at 5 to 10 uM incubated for 24 to 48 hrs by RT-PCR analysis", "assay_type": "functional, cell-based", "details": "dose 5-10 µM, time 24-48 hrs"}, "MDA-MB-231 [6]": {"test_system": "MDA-MB-231", "assay": "Induction of apoptosis in human MDA-MB-231 cells assessed as increase in Bax protein expression at 5 uM incubated for 24 to 48 hrs by Western blot analysis", "assay_type": "functional, cell-based", "details": "time 24-48 hrs"}, "[7]": {"target": "Poly [ADP-ribose] polymerase 1 (Homo sapiens) (UniProt P09874)", "assay": "Induction of PARP1 degradation in human MDA-MB-231 cells at 5 uM incubated for 48 hrs in presence 5 to 10 uM PARP1 inhibitor olaparib by Western blot analysis", "assay_type": "cell-based"}, "[8]": {"target": "Poly [ADP-ribose] polymerase 1 (Homo sapiens) (UniProt P09874)", "assay": "Induction of PARP1 degradation in triple-negative human MDA-MB-231 cells assessed as fold change in PARP1 protein expression at 0.1 uM incubated for 24 hrs by Western blot analysis relative to control", "assay_type": "cell-based"}, "[9]": {"target": "Poly [ADP-ribose] polymerase 1 (Homo sapiens) (UniProt P09874)", "assay": "Induction of PARP1 degradation in human HCC1937 cells harboring BRCA mutation assessed as fold change in PARP1 protein expression at 5 uM incubated for 48 hrs by Western blot analysis relative to control", "assay_type": "cell-based"}, "MDA-MB-231 [10]": {"test_system": "MDA-MB-231", "assay": "Induction of autophagy in human MDA-MB-231 cells assessed as upregulation in LC3A gene expression at 5 to 10 uM measured after 24 to 48 hrs by RT-PCR analysis", "assay_type": "functional, cell-based", "details": "dose 5-10 µM, time 24-48 hrs"}, "[11]": {"target": "Poly [ADP-ribose] polymerase 1 (Homo sapiens) (UniProt P09874)", "assay": "Induction of PARP1 degradation in human MDA-MB-468 cells assessed as fold change in PARP1 protein expression at 5 uM pretreated with caspase I inhibitor, Ac-YVAD-cmk for 2 hrs followed by incubation with compound for 48 hrs by Western blot analysis relative to control", "assay_type": "cell-based"}, "MDA-MB-231 [12]": {"test_system": "MDA-MB-231", "assay": "Induction of apoptosis in human MDA-MB-231 cells assessed as increase in cytochrome C protein expression at 5 uM incubated for 24 to 48 hrs by Western blot analysis", "assay_type": "functional, cell-based", "details": "time 24-48 hrs"}, "MDA-MB-231 [13]": {"test_system": "MDA-MB-231", "assay": "Induction of autophagy in human MDA-MB-231 cells assessed as upregulation in LC3B gene expression at 5 to 10 uM measured after 24 to 48 hrs by RT-PCR analysis", "assay_type": "functional, cell-based", "details": "dose 5-10 µM, time 24-48 hrs"}, "[14]": {"target": "Poly [ADP-ribose] polymerase 1 (Homo sapiens) (UniProt P09874)", "assay": "Induction of PARP1 degradation in human MDA-MB-231 cells at 5 uM pretreated for 2 hrs with proteasome inhibitor, carfilzomib for 2 hrs followed by incubation with compound for 48 hrs by immunoblotting analysis", "assay_type": "cell-based"}, "[15]": {"target": "Poly [ADP-ribose] polymerase 1 (Homo sapiens) (UniProt P09874)", "assay": "Induction of PARP1 degradation in triple-negative human MDA-MB-231 cells assessed as fold change in PARP1 protein expression at 2.5 uM incubated for 24 hrs by Western blot analysis relative to control", "assay_type": "cell-based"}, "MDA-MB-231 [16]": {"test_system": "MDA-MB-231", "assay": "Cytotoxicity against human MDA-MB-231 cells assessed as reduction in cell growth at 5 uM measured after 96 hrs by CCK8 assay relative to control", "assay_type": "functional"}, "[17]": {"target": "Poly [ADP-ribose] polymerase 1 (Homo sapiens) (UniProt P09874)", "assay": "Induction of PARP1 degradation in triple negative human MDA-MB-231 cells assessed as fold change in PARP1 protein expression at 5 uM incubated for 48 hrs by Western blot analysis relative to control", "assay_type": "cell-based"}, "[18]": {"target": "Poly [ADP-ribose] polymerase 1 (Homo sapiens) (UniProt P09874)", "assay": "Induction of PARP1 degradation in triple negative human MDA-MB-468 cells assessed as fold change in PARP1 protein expression at 5 uM incubated for 48 hrs by Western blot analysis relative to control", "assay_type": "cell-based"}, "MDA-MB-468 [19]": {"test_system": "MDA-MB-468", "assay": "Induction of autophagy in human MDA-MB-468 cells assessed as upregulation in LC3B protein expression at 5 uM measured after 48 hrs by Western blot analysis", "assay_type": "functional, cell-based"}, "[20]": {"target": "Poly [ADP-ribose] polymerase 1 (Homo sapiens) (UniProt P09874)", "assay": "Induction of PARP1 degradation in human MDA-MB-231 cells assessed as fold change in PARP1 protein expression at 5 uM incubated for 48 hrs in presence of caspase I inhibitor, Ac-YVAD-cmk by Western blot analysis relative to control", "assay_type": "cell-based"}, "[21]": {"target": "Poly [ADP-ribose] polymerase 1 (Homo sapiens) (UniProt P09874)", "assay": "Induction of PARP1 degradation in triple-negative human MDA-MB-231 cells assessed as fold change in PARP1 protein expression at 0.01 uM incubated for 48 hrs by Western blot analysis relative to control", "assay_type": "cell-based"}, "MDA-MB-468 [22]": {"test_system": "MDA-MB-468", "assay": "Induction of endoplasmic reticulum stress in human MDA-MB-468 cells assessed as increase in XBP-1s protein expression at 5 uM incubated for 48 hrs by Western blot analysis", "assay_type": "functional, cell-based"}, "MDA-MB-231 [23]": {"test_system": "MDA-MB-231", "assay": "Induction of autophagy in human MDA-MB-231 cells assessed as autophagosome, large double membrane-bound vesicles enclosing cytoplasmic components formation at 5 uM incubated for 24 to 48 hrs by transmission electron microscopy", "assay_type": "functional, cell-based", "details": "time 24-48 hrs"}, "MDA-MB-231 [24]": {"test_system": "MDA-MB-231", "assay": "Induction of endoplasmic reticulum stress in human MDA-MB-231 cells assessed as upregulation in ATF4 gene expression at 5 to 10 uM incubated for 24 to 48 hrs by RT-PCR analysis", "assay_type": "functional, cell-based", "details": "dose 5-10 µM, time 24-48 hrs"}, "[25]": {"target": "Poly [ADP-ribose] polymerase 1 (Homo sapiens) (UniProt P09874)", "assay": "Induction of PARP1 degradation in human HCC1937 cells harboring BRCA mutation assessed as fold change in PARP1 protein expression at 5 uM incubated for 24 hrs by Western blot analysis relative to control", "assay_type": "cell-based"}, "MDA-MB-231 [26]": {"test_system": "MDA-MB-231", "assay": "Induction of apoptosis in human MDA-MB-231 cells assessed as upregulation in PUMA gene expression at 5 to 10 uM incubated for 24 to 48 hrs by RT-PCR analysis", "assay_type": "functional, cell-based", "details": "dose 5-10 µM, time 24-48 hrs"}, "[27]": {"target": "Poly [ADP-ribose] polymerase 1 (Homo sapiens) (UniProt P09874)", "assay": "Induction of PARP1 degradation in triple-negative human MDA-MB-231 cells assessed as fold change in PARP1 protein expression at 2.5 uM incubated for 48 hrs by Western blot analysis relative to control", "assay_type": "cell-based"}}, "note": "Activity calls are given as the source filed them. The calls are words filed in the database; no cut-off is given here.", "data": [{"smiles": "O=C(CC1c2ccccc2-c2ccccc21)N1CCN(C(=O)c2cc(Cc3n[nH]c(=O)c4ccccc34)ccc2F)CC1", "values": [{"measurement": "Activity", "setting": "MDA-MB-231 [1]", "value": "Active"}, {"measurement": "Activity", "setting": "MDA-MB-231 [2]", "value": "Active"}, {"measurement": "fold change (FC)", "setting": "[3]", "value": 0.1}, {"measurement": "fold change (FC)", "setting": "[4]", "value": 0.7}, {"measurement": "Activity", "setting": "MDA-MB-231 [5]", "value": "Active"}, {"measurement": "Activity", "setting": "MDA-MB-231 [6]", "value": "Active"}, {"measurement": "Activity", "setting": "[7]", "value": "inactive"}, {"measurement": "fold change (FC)", "setting": "[8]", "value": 0.9}, {"measurement": "fold change (FC)", "setting": "[9]", "value": 0}, {"measurement": "Activity", "setting": "MDA-MB-231 [10]", "value": "Active"}, {"measurement": "fold change (FC)", "setting": "[11]", "value": 0.2}, {"measurement": "Activity", "setting": "MDA-MB-231 [12]", "value": "Active"}, {"measurement": "Activity", "setting": "MDA-MB-231 [13]", "value": "Active"}, {"measurement": "Activity", "setting": "[14]", "value": "inactive"}, {"measurement": "fold change (FC)", "setting": "[15]", "value": 0.8}, {"measurement": "inhibition at 5 µM", "setting": "MDA-MB-231 [16]", "value": 80, "unit": "%"}, {"measurement": "fold change (FC)", "setting": "[17]", "value": 0.1}, {"measurement": "fold change (FC)", "setting": "[18]", "value": 0.3}, {"measurement": "Activity", "setting": "MDA-MB-468 [19]", "value": "Active"}, {"measurement": "fold change (FC)", "setting": "[20]", "value": 0.3}, {"measurement": "fold change (FC)", "setting": "[21]", "value": 0.7}, {"measurement": "Activity", "setting": "MDA-MB-468 [22]", "value": "Active"}, {"measurement": "Activity", "setting": "MDA-MB-231 [23]", "value": "Active"}, {"measurement": "Activity", "setting": "MDA-MB-231 [24]", "value": "Active"}, {"measurement": "fold change (FC)", "setting": "[25]", "value": 0.3}, {"measurement": "Activity", "setting": "MDA-MB-231 [26]", "value": "Active"}, {"measurement": "fold change (FC)", "setting": "[27]", "value": 0.1}]}]}
